In assay [1] the target is T1, PI3Kα (Homo sapiens, UniProt P42336).
T1 construct: Full length p110 subunits of PI3K α, β and δ, N-terminally labeled with polyHis tag; polyHis (N); made in house; host or cells: Sf9 insect cells (baculovirus)
In words: In vitro PI3 kinase enzyme assay (PI3K ATPLoss). To be noted: recombinant p110α/p85, residual ATP by bioluminescence. The assay is classed as biochemical. The protocol:
Full length p110 subunits of PI3K α, β and δ, N-terminally labeled with polyHis tag, can be co-expressed with p85 with Baculo virus expression vectors in sf9 insect cells. P110/p85 heterodimers can be purified by sequential Ni-NTA, Q-HP, Superdex-100 chromatography. Purified α, β and δ isozymes can be stored at −20° C. in 20 mM Tris, pH 8, 0.2M NaCl, 50% glycerol, 5 mM DTT, 2 mM Na cholate. Truncated PI3Kγ, residues 114-1102, N-terminally labeled with polyHis tag, can be expressed with Baculo virus in Hi5 insect cells. The γ isozyme can be purified by sequential Ni-NTA, Superdex-200, Q-HP chromatography. The γ isozyme can be stored frozen at −80° C. in NaH2PO4, pH 8, 0.2M NaCl, 1% ethylene glycol, 2 mM β-mercaptoethanol.
PI3K enzyme assays (alpha, beta, delta and gamma) can be performed in 25 μL with the above final concentrations of components in white polyproplyene plates. Phosphatidyl inositol phosphoacceptor, PtdIns(4,5)P2 (e.g. P4508) can be obtained from Echelon Biosciences, Salt Lake City, Utah. The ATPase activity of the alpha and gamma isozymes may not be greatly stimulated by PtdIns(4,5)P2 under these conditions, it can be omitted from the assay of these isozymes. Test compounds can be dissolved in DMSO and diluted with three-fold serial dilutions. The compound in DMSO (1 μL) may be added per test well, and the inhibition relative to reactions containing no compound, with and without enzyme can be determined. After assay incubation at RT, the reaction can be stopped and residual ATP can be determined by addition of an equal volume of a commercial ATP bioluminescence kit (Perkin Elmer EasyLite, Perkin Elmer, Waltham, Mass.) according to the manufacturer's instructions, and detected using an Analyst GT luminometer.

Assay [2] relates to phosphorylation of Akt at Serine 473 in U87 MG cells. In words: pAkt AlphaScreen (U87 Cell). The class given is cell-based. As to conditions: Homo sapiens, U-87 MG, 2 h, 2 h compound, pAkt Ser473 AlphaScreen. How it is done: The pAkt AlphaScreen® assay (PerkinElmer, Waltham, Mass.) determines whether there is phosphorylation of Akt at Serine 473 by recruitment of a phosphospecific antibody. This assay was performed using U87 MG cells. The U87 growth media consists of MEM (Gibco, Carlsbad, Calif.) supplemented with 10% FBS (Gibco), 1× Non-Essential Amino Acids (Gibco) and 1× Penicillin/Streptomycin/Glutamine (Gibco). The cells were maintained weekly using 0.05% Trypsin (Gibco) and replated in 150 mm TC-Treated Culture Dishes (Corning, Corning, N.Y.).
The first day of the assay, the adherent cells were trypsinized, media was added to the loose cells and cells were mixed to a homogenous mixture. 0.5 ml of the homogenous mixture was counted on the Beckman Coulter® Vi-CELL™ XR (Fullerton, Calif.). 50 frames of cells were counted and the number of viable cells was determined. The cells were then diluted to 0.25 million cells per ml, and centrifuged at 200 rcf for 5 minutes. The media was removed and the cells were reconstituted in fresh media for plating. The cells were plated at 20 μl per well on the PerkinElmer® Flexprop PLUS in Low Volume 384 Well White Tissue Culture Plates (Corning) with a final cell density of 5K cells per well. The plates were incubated overnight at 37° Celsius, 5% CO2.
On the second day, the compound plates were prepared, the cells were treated with compound and the pAkt reaction mix was added to the cell lysate. 384 well compound plates were prepared containing 1 μl of compound per well starting at 5 mM and diluted 1:2 across the row, resulting in a 22 well serial dilution. 39 μl of growth media was added to the compound plate in rows 1-22 using the PerkinElmer® FlexDrop PLUS resulting in a DMSO concentration of 2.5%. The cell plates and diluted compound plates were put onto the VELOCITY11™ VPREP™ 384 ST where the compound plate was mixed and 5 μl of serially diluted compound or controls was added to the cell plate. The final concentration of the compounds was 25 μM serially diluted to 11.9 pM in 0.5% DMSO. The cell plates were then incubated with compound for two hours at 37° Celsius, 5% CO2. After two hours, the media in the cell plates was aspirated using the BioTek® ELx405HT plate washer (Winooski, Vt.) removing the majority of media and compound without disturbing the adherent U87 cells. The following assay reagents are components of the SureFire® Akt (Ser 473) Phosphorylation 50K Point Kit (TGR BioSciences, Adelaide, Australia) and an IgG Detection Kit (PerkinElmer, Waltham, Mass.). 5 μl of 1× Lysis Buffer was added to each well using the PerkinElmer® FlexDrop PLUS. The plates were then incubated at room temperature on a shaker for ten minutes. The AlphaScreen® reaction was prepared under low light conditions (subdued or green light) including p-Akt (Ser 473) Reaction Buffer, Dilution Buffer, Activation Buffer, Acceptor Beads and Donor Beads at a ratio of 40:20:10:1:1 respectively. The AlphaScreen® reaction was added to the cell lysate at 6 μl per well using the PerkinElmer® FlexDrop PLUS. The plates were placed in a humid environment to reduce edge effects and incubated overnight at room temperature with restricted air flow in the dark.
On the final day of the experiment, the plates were read on the PerkinElmer® EnVision™ 2103 Multilable Reader using the standard AlphaScreen® readout. The POC is calculated and the data is analyzed to report the IC50 IP for pAkt at Serine 473.
A general note: Alpha assays give light when donor and acceptor beads are brought close together.

Bounds are passed on as bounds.

T1 sequence (P42336 whole entry, species assumed): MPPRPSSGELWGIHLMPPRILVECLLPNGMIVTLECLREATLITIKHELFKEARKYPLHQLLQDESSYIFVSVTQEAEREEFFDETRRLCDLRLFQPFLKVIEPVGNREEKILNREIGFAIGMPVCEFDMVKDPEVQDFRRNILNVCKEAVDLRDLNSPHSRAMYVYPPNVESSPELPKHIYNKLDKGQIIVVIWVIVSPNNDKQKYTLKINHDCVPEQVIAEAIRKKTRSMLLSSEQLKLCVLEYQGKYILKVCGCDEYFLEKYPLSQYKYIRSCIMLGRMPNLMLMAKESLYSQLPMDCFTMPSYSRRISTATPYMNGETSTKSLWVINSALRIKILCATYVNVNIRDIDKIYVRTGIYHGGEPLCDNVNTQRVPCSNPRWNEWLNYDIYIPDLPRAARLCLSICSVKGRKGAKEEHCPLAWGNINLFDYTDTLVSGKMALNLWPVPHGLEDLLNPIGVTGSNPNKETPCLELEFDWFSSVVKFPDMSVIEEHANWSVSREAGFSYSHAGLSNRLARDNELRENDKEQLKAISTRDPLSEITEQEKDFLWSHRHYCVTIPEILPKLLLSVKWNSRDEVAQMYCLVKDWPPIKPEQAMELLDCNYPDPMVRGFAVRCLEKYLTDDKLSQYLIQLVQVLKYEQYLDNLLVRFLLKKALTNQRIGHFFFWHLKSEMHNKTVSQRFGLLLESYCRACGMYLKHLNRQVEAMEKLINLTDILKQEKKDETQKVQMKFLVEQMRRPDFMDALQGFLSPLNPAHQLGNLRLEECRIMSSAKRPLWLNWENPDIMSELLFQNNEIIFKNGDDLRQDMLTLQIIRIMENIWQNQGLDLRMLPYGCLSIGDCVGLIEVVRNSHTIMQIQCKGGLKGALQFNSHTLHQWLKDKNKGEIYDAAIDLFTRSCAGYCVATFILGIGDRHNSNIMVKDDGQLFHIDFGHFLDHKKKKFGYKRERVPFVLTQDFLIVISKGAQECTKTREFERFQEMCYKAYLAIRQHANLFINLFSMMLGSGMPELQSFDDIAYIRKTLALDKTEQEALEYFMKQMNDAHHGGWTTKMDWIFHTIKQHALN
T1 sequence (P27986 whole entry partner, species assumed): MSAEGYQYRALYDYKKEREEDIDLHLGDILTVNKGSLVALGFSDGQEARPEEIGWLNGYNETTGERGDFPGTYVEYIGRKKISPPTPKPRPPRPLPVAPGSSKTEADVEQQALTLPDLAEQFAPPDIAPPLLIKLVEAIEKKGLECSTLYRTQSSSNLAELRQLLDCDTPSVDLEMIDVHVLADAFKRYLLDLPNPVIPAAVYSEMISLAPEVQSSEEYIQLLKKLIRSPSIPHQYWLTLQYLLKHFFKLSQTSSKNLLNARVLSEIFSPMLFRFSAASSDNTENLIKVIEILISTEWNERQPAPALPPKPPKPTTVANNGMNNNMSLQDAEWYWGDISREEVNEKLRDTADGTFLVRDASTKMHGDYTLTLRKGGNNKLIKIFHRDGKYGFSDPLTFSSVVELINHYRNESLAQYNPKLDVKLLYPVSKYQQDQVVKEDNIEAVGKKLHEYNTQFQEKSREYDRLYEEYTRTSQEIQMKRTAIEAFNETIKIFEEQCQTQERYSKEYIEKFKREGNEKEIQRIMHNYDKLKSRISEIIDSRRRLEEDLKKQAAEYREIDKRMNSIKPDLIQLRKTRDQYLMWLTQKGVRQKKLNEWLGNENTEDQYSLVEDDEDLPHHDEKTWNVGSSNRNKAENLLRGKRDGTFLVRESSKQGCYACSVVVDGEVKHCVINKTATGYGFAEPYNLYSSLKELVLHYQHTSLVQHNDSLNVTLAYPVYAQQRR

The IC50 is the concentration at which inhibition is half-maximal. For `CC(=O)Nc1cn2nc(-c3ccnc(F)c3)ccc2n1` [Example 3, N-(6-(2-Fluoropyridin-4-yl)imidazo[1,2-b]pyridazin-2-yl)acetamide], the IC50 in assay [1] amounted to 0.782 µM.
Still for that read-out and setting: under `CC(=O)Nc1cn2nc(-c3cccc(N)c3)ccc2n1` [Example 5, N-(6-(3-Aminophenyl)imidazo[1,2-b]pyridazin-2-yl)acetamide] stands 0.982 µM; under `CC(=O)Nc1cn2nc(-c3cccc(NS(=O)(=O)c4cccc5cnccc45)c3)ccc2n1` [Example 6, N-(6-(3-(Isoquinoline-5-sulfonamido)phenyl)imidazo[1,2-b]pyridazin-2-yl)acetamide], 0.096 µM.
The same measure, in the same setting: to `CC(=O)Nc1cn2cc(-c3cncc(N)c3)ccc2n1` [Example 14, N-(6-(5-Aminopyridin-3-yl)H-imidazo[1,2-a]pyridin-2-yl)acetamide] belongs 0.214 µM.
For `CC(=O)Nc1cn2cc(-c3cncc(NCCC(C)(C)C)c3)ccc2n1` [Example 18, N-(6-(5-(3,3-Dimethylbutylamino)pyridin-3-yl)H-imidazo[1,2-a]pyridin-2-yl)acetamide], in assay [1], the IC50 was found to be 0.211 µM.
Turning to `COc1cc(-c2ccc3nc(NC(C)=O)cn3n2)cnc1OC` [Example 20, N-(6-(5,6-Dimethoxypyridin-3-yl)imidazo[1,2-b]pyridazin-2-yl)acetamide], the IC50 was determined as 0.115 µM in assay [2] and 0.014 µM in assay [1].
For `CC(=O)Nc1nc2ccc(-c3cnc(Cl)c(NS(C)(=O)=O)c3)nn2c1I` [Example 21, N-(6-(6-Chloro-5-(methylsulfonamido)pyridin-3-yl)-3-iodoimidazo[1,2-b]pyridazin-2-yl)acetamide] the same measures were 2.19 µM and 0.033 µM.
As for `CC(=O)Nc1nc2ccc(-c3cnc(Cl)c(NS(C)(=O)=O)c3)nn2c1-c1cccc(F)c1` [Example 22, N-(6-(6-Chloro-5-(methylsulfonamido)pyridin-3-yl)-3-(3-fluorophenyl)imidazo[1,2-b]pyridazin-2-yl)acetamide], the IC50 was found to be 3.2 µM in assay [2] and 0.015 µM in assay [1].
Taken in the same sequence, the figures for `CS(=O)(=O)Nc1cc(-c2ccc3nc(N)c(-c4cccc(F)c4)n3n2)cnc1Cl` [Example 23, N-(5-(2-Amino-3-(3-fluorophenyl)imidazo[1,2-b]pyridazin-6-yl)-2-chloropyridin-3-yl)methanesulfonamide] were 0.055 µM and 0.102 µM.
As to `CC(=O)Nc1nc2ccc(-c3cnc(Cl)c(NS(C)(=O)=O)c3)nn2c1-c1ccc(F)c(C(=O)N2CCOCC2)c1` [Example 24, N-(6-(6-chloro-5-(methylsulfonamido)pyridin-3-yl)-3-(4-fluoro-3-(morpholine-4-carbonyl)phenyl)imidazo[1,2-b]pyridazin-2-yl)acetamide], the 50% inhibitory concentration (IC50) in assay [2] is at least 25 µM; in assay [1], 0.093 µM.
With `CS(=O)(=O)Nc1cc(-c2ccc3nc(N)c(-c4ccc(F)c(C(=O)O)c4)n3n2)cnc1Cl` [Example 25, 5-(2-Amino-6-(6-chloro-5-(methylsulfonamido)pyridin-3-yl)imidazo[1,2-b]pyridazin-3-yl)-2-fluorobenzoic acid], the values for the IC50 in assay [2] and in assay [1] were at least 25 µM and 1.17 µM, respectively.
As to `Nc1cn2cc(-c3cnc(Cl)c(NS(=O)(=O)c4ccc(F)cc4)c3)ccc2n1` [Example 29, N-(5-(2-Aminoimidazo[1,2-a]pyridin-6-yl)-2-chloropyridin-3-yl)-4-fluorobenzenesulfonamide], the IC50 in assay [1] is 0.064 µM.
Take `CC(=O)Nc1nc2ccc(-c3cnc(Cl)c(NS(=O)(=O)c4cccc(OC(F)F)c4)c3)nn2c1-c1ccncc1` [Example 44, N-(6-(6-Chloro-5-(3-(difluoromethoxy)phenylsulfonamido)pyridin-3-yl)-3-(pyridin-4-yl)imidazo[1,2-b]pyridazin-2-yl)acetamide]: in assay [2], inhibition was half-maximal at 7.48 µM (IC50).
For the molecule `Nc1nc2ccc(-c3cnc(Cl)c(NS(=O)(=O)c4cccc(OC(F)F)c4)c3)nn2c1-c1ccncc1` [Example 45, N-(5-(2-Amino-3-(pyridin-4-yl)imidazo[1,2-b]pyridazin-6-yl)-2-chloropyridin-3-yl)-3-(difluoromethoxy)benzenesulfonamide], the IC50 in assay [2] worked out at 0.027 µM.
Turning to `CC(=O)Nc1nc2ccc(-c3cnc(Cl)c(NS(=O)(=O)c4cccc(OC(F)F)c4)c3)nn2c1-c1ccnc(C)c1` [Example 46, N-(6-(6-Chloro-5-(3-(difluoromethoxy)phenylsulfonamido)pyridin-3-yl)-3-(2-methylpyridin-4-yl)imidazo[1,2-b]pyridazin-2-yl)acetamide], it took 5.79 µM to reach half-maximal inhibition in assay [2] (IC50).
For `Cc1cc(-c2c(N)nc3ccc(-c4cnc(Cl)c(NS(=O)(=O)c5cccc(OC(F)F)c5)c4)nn23)ccn1` [Example 47, N-(5-(2-Amino-3-(2-methylpyridin-4-yl)imidazo[1,2-b]pyridazin-6-yl)-2-chloropyridin-3-yl)-3-(difluoromethoxy)benzenesulfonamide], the midpoint of inhibition in assay [2], the IC50, lay at 0.014 µM.
Molecule `CC(=O)Nc1nc2ccc(-c3cnc(Cl)c(NS(=O)(=O)c4ccc(F)cc4)c3)nn2c1-c1ccncc1` [Example 48, N-(6-(6-Chloro-5-(4-fluorophenylsulfonamido)pyridin-3-yl)-3-(pyridin-4-yl)imidazo[1,2-b]pyridazin-2-yl)acetamide] registered an IC50 in assay [2] of 0.018 µM.
In turn, `CC(=O)Nc1nc2ccc(-c3cnc(Cl)c(NS(=O)(=O)c4cccc(OC(F)F)c4)c3)nn2c1-c1cccnc1` [Example 49, N-(6-(6-Chloro-5-(3-(difluoromethoxy)phenylsulfonamido)pyridin-3-yl)-3-(pyridin-3-yl)imidazo[1,2-b]pyridazin-2-yl)acetamide] gave an IC50 in assay [2] of 3.9 µM.
Still for that read-out and setting: under `Nc1nc2ccc(-c3cnc(Cl)c(NS(=O)(=O)c4cccc(OC(F)F)c4)c3)nn2c1-c1cccnc1` [Example 50, N-(5-(2-Amino-3-(pyridin-3-yl)imidazo[1,2-b]pyridazin-6-yl)-2-chloropyridin-3-yl)-3-(difluoromethoxy)benzenesulfonamide] stands 0.118 µM.
Still for that read-out and setting: under `Nc1nc2ccc(-c3cnc(Cl)c(NS(=O)(=O)c4cccc(OC(F)F)c4)c3)nn2c1C1=CCNCC1` [Example 51, N-(5-(2-Amino-3-(1,2,3,6-tetrahydropyridin-4-yl)imidazo[1,2-b]pyridazin-6-yl)-2-chloropyridin-3-yl)-3-(difluoromethoxy)benzenesulfonamide] stands 0.439 µM.
`CC(=O)Nc1cn2cc(-c3ccnc(Cl)n3)ccc2n1` [Example 53, N-(6-(2-Chloropyrimidin-4-yl)H-imidazo[1,2-a]pyridin-2-yl)acetamide]: the IC50 in assay [1] turned out to be 1.86 µM.

These data come from US7820665B2, “Imidazopyridazine inhibitors of PI3 kinase for cancer treatment” (Amgen Inc., priority 2007, dated 2010).
